Data reported in patent publication US8791123B2, “Substituted pyrazolo[1,5-a]pyrimidine compounds as Trk kinase inhibitors” (Array Biopharma, Inc., priority 2009, dated 2014).
Read-outs that look alike come from different tables or passages of the source.

Tests used:
Human Jak2 kinase domain = Human Jak2 kinase domain (Homo sapiens (Human), UniProt O60674); experiment: Jak2 Inhibition Assay (Omnia kinase assay); format: biochemical; conditions: read-out: Jak2 Enzyme IC50
Protocol: The assays described in Examples C, D, E and F for the determination of JAK1, JAK2, JAK3 and Tyk2 kinase activity, respectively, utilized the Omnia® Kinase fluorescence peptide substrate-based technology (Invitrogen). […] The reactions were therefore read at excitation 360 nm and emission was measured at 485 nm every 50 seconds for 45 minutes using a PerkinElmer EnVision Multilabel Plate Reader.
The final buffer conditions for each of the JAK1, JAK2, JAK3 and Tyk2 assays were as follows: 25 mM HEPES, pH 7.4, 10 mM MgCl2, 0.01% Triton X-100 and 1 mM DTT.
Two-μL aliquots of these were transferred to a fresh plate for a ten-fold intermediate dilution with assay buffer. Five-μL aliquots of the diluted compounds were then transferred to 20-μL of assay mixtures described in Examples C, D, E and F for a final concentration of DMSO of 2%. […] For each plate, percent of control (POC) values were calculated for each well according to the following equation:
[formula] • where • Xmax=Average Uninhibited Controls • Xmin=Average Background IC50's were estimated from the POC's using a standard 4-parameter logistic model:
[formula] • where • A=Minimum Y (Bottom Asymptote) • B=Maximum Y (Top Asymptote) • C=EC50 • D=Slope Factor • X=Compound Concentration (nM) • Y=POC
The IC50 is defined as the concentration of inhibitor at which the POC equals 50 for the fitted curve.
Compounds of Formula I were screened for their ability to inhibit Jak2 using the general enzyme inhibition assay method, in which the assay mixture contained 500 μM ATP, 10 μM Omnia® Y7 peptide (Catalog # IVGN KNZ3071C, Invitrogen Corporation, Carlsbad, Calif.) and 4 nM Jak2 in a total volume of 20 μL. Human Jak2 kinase domain comprising amino acids 808-1132 was purchased from Invitrogen Corporation, Carlsbad, Calif. (catalog # IVGN PV4210).

[1] = molecular target: TrkA (histidine-tagged recombinant human TrkA, cytoplasmic domain) (Homo sapiens (Human), UniProt P04629); experiment: TrkA ELISA Assay; format: biochemical; conditions: Table 1; ELISA, 500 μM ATP; read-out: TrkA Enzyme IC50
TrkA (histidine-tagged recombinant human TrkA, cytoplasmic domain), sequence (P04629 440-796): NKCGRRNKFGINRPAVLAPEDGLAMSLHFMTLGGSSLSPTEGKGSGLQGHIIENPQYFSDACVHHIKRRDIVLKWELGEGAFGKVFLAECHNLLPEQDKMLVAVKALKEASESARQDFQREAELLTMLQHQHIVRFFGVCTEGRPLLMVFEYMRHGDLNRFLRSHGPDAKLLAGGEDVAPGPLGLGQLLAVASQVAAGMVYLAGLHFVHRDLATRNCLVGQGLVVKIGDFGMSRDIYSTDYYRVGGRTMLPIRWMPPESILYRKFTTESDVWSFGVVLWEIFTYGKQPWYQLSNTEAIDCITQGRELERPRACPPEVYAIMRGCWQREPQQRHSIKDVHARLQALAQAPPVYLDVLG
Protocol: An enzyme-linked immunosorbant assay (ELISA) was used to assess TrkA kinase activity in the presence of inhibitors. Immulon 4HBX 384-well microtiter plates (Thermo part #8755) were coated with a 0.025 mg/mL solution of poly (Glu, Ala, Tyr; 6:3:1; Sigma P3899). […] The reaction mixture was removed from the plate by washing with PBS containing 0.1% (v/v) Tween 20. The phosphorylated reaction product was detected using 0.2 μg/mL of a phosphotyrosine specific monoclonal antibody (clone PY20) conjugated to horseradish peroxidase in conjunction with the TMB Peroxidase Substrate System (KPL). After the addition of 1M phosphoric acid, the chromogenic substrate color intensity was quantitated via absorbance at 450 nm.

[2] = Table 1, 500 μM ATP, >1000 nM when >50% inhibition not observed at 1000 nM

Human Jak2 kinase domain, sequence (O60674 808-1132): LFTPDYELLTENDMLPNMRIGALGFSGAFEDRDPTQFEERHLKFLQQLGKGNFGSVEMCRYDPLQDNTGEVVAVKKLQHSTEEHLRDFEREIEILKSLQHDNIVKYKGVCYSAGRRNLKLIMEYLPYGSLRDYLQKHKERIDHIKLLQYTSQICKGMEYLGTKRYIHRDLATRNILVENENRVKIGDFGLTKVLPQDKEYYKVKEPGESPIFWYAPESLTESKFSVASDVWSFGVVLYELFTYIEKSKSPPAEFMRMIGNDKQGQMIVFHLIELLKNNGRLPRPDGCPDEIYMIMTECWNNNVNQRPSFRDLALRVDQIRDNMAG

IC50 (Human Jak2 kinase domain; [2]) | IC50 [1] | IC50 (Human Jak2 kinase domain) | SMILES
> 1 µM | 0.00253 µM | – | O=C(NC[C@H](O)CO)c1cnn2ccc(N3CCC[C@@H]3c3cc(F)ccc3C(F)(F)F)nc12 [Example 62, N—((S)-2,3-dihydroxypropyl)-5-((R)-2-(5-fluoro-2-(trifluoromethyl)phenyl)pyrrolidin-1-yl)pyrazolo[1,5-a]pyrimidine-3-carboxamide]
> 1 µM | 0.00455 µM | – | O=C(NC[C@@H](O)CO)c1cnn2ccc(N3CCC[C@@H]3c3cc(F)ccc3C(F)(F)F)nc12 [Example 63, N—((R)-2,3-dihydroxypropyl)-5-((R)-2-(5-fluoro-2-(trifluoromethyl)phenyl)pyrrolidin-1-yl)pyrazolo[1,5-a]pyrimidine-3-carboxamide]
0.575 µM | 0.0016 µM | – | NC(=O)c1cnn2ccc(N3CCC[C@@H]3c3cc(F)ccc3C(F)(F)F)nc12 [Example 64, (R)-5-(2-(5-fluoro-2-(trifluoromethyl)phenyl)pyrrolidin-1-yl)pyrazolo[1,5-a]pyrimidine-3-carboxamide]
> 1 µM | 0.0006 µM | – | CONC(=O)c1cnn2ccc(N3CCC[C@@H]3c3cc(F)ccc3F)nc12 [Example 65, (R)-5-(2-(2,5-difluorophenyl)pyrrolidin-1-yl)-N-methoxypyrazolo[1,5-a]pyrimidine-3-carboxamide]
> 1 µM | 0.00057 µM | – | O=C(NOCC1CC1)c1cnn2ccc(N3CCC[C@@H]3c3cc(F)ccc3F)nc12 [Example 66, (R)—N-(cyclopropylmethoxy)-5-(2-(2,5-difluorophenyl)pyrrolidin-1-yl)pyrazolo[1,5-a]pyrimidine-3-carboxamide]
> 1 µM | 0.0051 µM | – | CC1(C)CC[C@H](c2cc(F)ccc2F)N1c1ccn2ncc(C(N)=O)c2n1 [Example 67, (R)-5-(5-(2,5-difluorophenyl)-2,2-dimethylpyrrolidin-1-yl)pyrazolo[1,5-a]pyrimidine-3-carboxamide]
> 1 µM | 0.0066 µM | – | CC1(C)CC[C@H](c2cc(F)ccc2F)N1c1ccn2ncc(C(=O)NC3CC3)c2n1 [Example 68, (R)—N-cyclopropyl-5-(5-(2,5-difluorophenyl)-2,2-dimethylpyrrolidin-1-yl)pyrazolo[1,5-a]pyrimidine-3-carboxamide]
> 1 µM | 0.00865 µM | – | CC(C)(CF)NC(=O)c1cnn2ccc(N3CCC[C@@H]3c3cncc(F)c3)nc12 [Example 71, (R)—N-(1-fluoro-2-methylpropan-2-yl)-5-(2-(5-fluoropyridin-3-yl)pyrrolidin-1-yl)pyrazolo[1,5-a]pyrimidine-3-carboxamide]
> 1 µM | 0.0444 µM | – | O=C(NC1CCOCC1)c1cnn2ccc(N3CCC[C@@H]3c3cncc(F)c3)nc12 [Example 72, (R)-5-(2-(5-fluoropyridin-3-yl)pyrrolidin-1-yl)-N-(tetrahydro-2H-pyran-4-yl)pyrazolo[1,5-a]pyrimidine-3-carboxamide]
> 1 µM | 0.0485 µM | – | CONC(=O)c1cnn2ccc(N3CCC[C@@H]3c3cncc(F)c3)nc12 [Example 73, (R)-5-(2-(5-fluoropyridin-3-yl)pyrrolidin-1-yl)-N-methoxypyrazolo[1,5-a]pyrimidine-3-carboxamide]
> 1 µM | 0.00695 µM | – | CONC(=O)c1cnn2ccc(N3CCC[C@@H]3c3cccc(F)c3)nc12 [Example 75]
> 1 µM | 0.0901 µM | – | NC(=O)c1cnn2ccc(N3CCC[C@@H]3c3cc(F)cc(OCCN4CCOCC4)c3)nc12 [Example 76, (R)-5-(2-(3-fluoro-5-(2-morpholinoethoxy)phenyl)pyrrolidin-1-yl)pyrazolo[1,5-a]pyrimidine-3-carboxamide]
> 1 µM | 0.00537 µM | – | COCCOc1cc(F)cc([C@H]2CCCN2c2ccn3ncc(C(=O)NC4CC4)c3n2)c1 [Example 77, (R)—N-cyclopropyl-5-(2-(3-fluoro-5-(2-methoxyethoxy)phenyl)pyrrolidin-1-yl)pyrazolo[1,5-a]pyrimidine-3-carboxamide]
> 1 µM | 0.0348 µM | – | COCCOc1cc(F)cc([C@H]2CCCN2c2ccn3ncc(C(N)=O)c3n2)c1 [Example 78, (R)-5-(2-(3-fluoro-5-(2-methoxyethoxy)phenyl)pyrrolidin-1-yl)pyrazolo[1,5-a]pyrimidine-3-carboxamide]
– | 0.0013 µM | 0.698 µM | COc1ncc(F)cc1[C@H]1CCCN1c1ccn2ncc(C(=O)NC3CC3)c2n1 [Example 79, (R)—N-cyclopropyl-5-(2-(5-fluoro-2-methoxypyridin-3-yl)pyrrolidin-1-yl)pyrazolo[1,5-a]pyrimidine-3-carboxamide]
– | 0.0018 µM | 0.869 µM | COc1ncc(F)cc1[C@H]1CCCN1c1ccn2ncc(C(=O)NC(C)(C)C)c2n1 [Example 80, (R)—N-tert-butyl-5-(2-(5-fluoro-2-methoxypyridin-3-yl)pyrrolidin-1-yl)pyrazolo[1,5-a]pyrimidine-3-carboxamide]
– | 0.00115 µM | 0.666 µM | COc1ncc(F)cc1[C@H]1CCCN1c1ccn2ncc(C(=O)NC(C)(C)CF)c2n1 [Example 81, (R)-5-(2-(5-fluoro-2-methoxypyridin-3-yl)pyrrolidin-1-yl)-N-(1-fluoro-2-methylpropan-2-yl)pyrazolo[1,5-a]pyrimidine-3-carboxamide]
– | 0.00255 µM | > 1 µM | COc1ncc(F)cc1[C@H]1CCCN1c1ccn2ncc(C(N)=O)c2n1 [Example 82, (R)-5-(2-(5-fluoro-2-methoxypyridin-3-yl)pyrrolidin-1-yl)pyrazolo[1,5-a]pyrimidine-3-carboxamide]
– | 0.00177 µM | > 1 µM | CONC(=O)c1cnn2ccc(N3CCC[C@@H]3c3cc(F)cnc3OC)nc12 [Example 83, (R)-5-(2-(5-fluoro-2-methoxypyridin-3-yl)pyrrolidin-1-yl)-N-methoxypyrazolo[1,5-a]pyrimidine-3-carboxamide]
> 1 µM | 0.00938 µM | – | O=C(NC1CC1)c1cnn2ccc(N3CCC[C@@H]3c3cc(F)cc(OCCN4CCOCC4)c3)nc12 [Example 85, (R)—N-cyclopropyl-5-(2-(3-fluoro-5-(2-morpholinoethoxy)phenyl)pyrrolidin-1-yl)pyrazolo[1,5-a]pyrimidine-3-carboxamide]
> 1 µM | 0.0267 µM | – | NC(=O)c1cnn2ccc(N3CCC[C@@H]3c3cc(F)ccc3OCCN3CCOCC3)nc12 [Example 86, (R)-5-(2-(5-fluoro-2-(2-morpholinoethoxy)phenyl)pyrrolidin-1-yl)pyrazolo[1,5-a]pyrimidine-3-carboxamide]
> 1 µM | 0.0161 µM | – | O=C(NC1CC1)c1cnn2ccc(N3CCC[C@@H]3c3cc(F)ccc3OCCN3CCOCC3)nc12 [Example 87, (R)—N-cyclopropyl-5-(2-(5-fluoro-2-(2-morpholinoethoxy)phenyl)pyrrolidin-1-yl)pyrazolo[1,5-a]pyrimidine-3-carboxamide]
> 1 µM | 0.00613 µM | – | O=C(NOC[C@@H](O)CO)c1cnn2ccc(N3CCC[C@@H]3c3cc(F)ccc3F)nc12 [Example 88, 5-((R)-2-(2,5-difluorophenyl)pyrrolidin-1-yl)-N—((S)-2,3-dihydroxypropoxy)pyrazolo[1,5-a]pyrimidine-3-carboxamide]
> 1 µM | 0.0036 µM | – | COCCOc1ccc(F)cc1[C@H]1CCCN1c1ccn2ncc(C(N)=O)c2n1 [Example 89, (R)-5-(2-(5-fluoro-2-(2-methoxyethoxy)phenyl)pyrrolidin-1-yl)pyrazolo[1,5-a]pyrimidine-3-carboxamide]
> 1 µM | 1.01 µM | – | CC1(O)CN(C(=O)c2cnn3ccc(N4CCC[C@@H]4c4cncc(F)c4)nc23)C1 [Example 92, (R)-(5-(2-(5-fluoropyridin-3-yl)pyrrolidin-1-yl)pyrazolo[1,5-a]pyrimidin-3-yl)(3-hydroxy-3-methylazetidin-1-yl)methanone]
> 1 µM | 0.568 µM | – | O=C(c1cnn2ccc(N3CCC[C@@H]3c3cncc(F)c3)nc12)N1CCCC1 [Example 94, (R)-(5-(2-(5-fluoropyridin-3-yl)pyrrolidin-1-yl)pyrazolo[1,5-a]pyrimidin-3-yl)(pyrrolidin-1-yl)methanone]
